Measurements published in the supplement of paper PMC10307832.

What was measured:
Assay in all cases: relative viability (nuclei count vs DMSO), 5 days (fraction); higher = more cells survive
[1] = compound: CN1CCN(CC1)C2=CC(=C(C=C2)NC3=NC=C4C(=N3)N(C5=CC=CC=C5C(=O)N4C)C)OC [XMD8-85] + Nc1nc2[nH]cc(CCc3ccc(C(=O)N[C@@H](CCC(=O)O)C(=O)O)cc3)c2c(=O)[nH]1 [Pemetrexed] (partner 0.2 µM)
Method in brief: (§1)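 Values are medians from duplicate plates. Each reflects relative viability, defined as the nuclei count of treated wells over that of vehicle wells. Lung cancer cell lines in 1536-well plates were pin-tool dosed one day after seeding with one drug alone or with a fixed anchor-drug dose plus five library-drug doses (not always all listed) in √10 steps, then fixed, stained and imaged at 4× after 5 days.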

[2] = compound: CN1CCN(CC1)C2=CC(=C(C=C2)NC3=NC=C4C(=N3)N(C5=CC=CC=C5C(=O)N4C)C)OC [XMD8-85] + O=C(c1cc(Cc2n[nH]c(=O)c3ccccc23)ccc1F)N1CCN(C(=O)C2CC2)CC1 [Olaparib] (partner 8 µM)
Method in brief: as §1

[3] = compound: O=C(O)C(Cc1ccccc1[N+](=O)[O-])=NNc1nc(-c2ccc(Cl)c(Cl)c2)cs1 (mixture of isomers) [4EGI-1] + CS(=O)(=O)N1CCN(Cc2cc3nc(-c4cccc5[nH]ncc45)nc(N4CCOCC4)c3s2)CC1 [Pictilisib] (partner 1 µM)
Method in brief: as §1

[4] = compound: O=C(O)C(Cc1ccccc1[N+](=O)[O-])=NNc1nc(-c2ccc(Cl)c(Cl)c2)cs1 (mixture of isomers) [4EGI-1] + O=C(CCCCCCC(=O)Nc1ccccc1)NO [Vorinostat] (partner 1 µM)
Method in brief: as §1

| Cell Line | relative viability ([1]; first compound 0.08 µM) | relative viability ([1]; first compound 0.253 µM) | relative viability ([1]; first compound 0.8 µM) | relative viability ([1]; first compound 2.53 µM) | relative viability ([1]; first compound 8 µM) | relative viability ([2]; first compound 0.08 µM) | relative viability ([2]; first compound 0.253 µM) | relative viability ([2]; first compound 0.8 µM) | relative viability ([2]; first compound 2.53 µM) | relative viability ([2]; first compound 8 µM) | relative viability ([3]; first compound 0.5 µM) | relative viability ([3]; first compound 1.581 µM) | relative viability ([3]; first compound 5 µM) | relative viability ([3]; first compound 15.81 µM) | relative viability ([3]; first compound 50 µM) | relative viability ([4]; first compound 0.5 µM) | relative viability ([4]; first compound 1.581 µM) | relative viability ([4]; first compound 5 µM) | relative viability ([4]; first compound 15.81 µM) | relative viability ([4]; first compound 50 µM) |
| --- | --- | --- | --- | --- | --- | --- | --- | --- | --- | --- | --- | --- | --- | --- | --- | --- | --- | --- | --- | --- |
| NCI-H1651 | 0.506 | 0.617 | 0.602 | 0.748 | 0.445 | 0.166 | 0.19 | 0.181 | 0.172 | 0.16 | 0.627 | 0.632 | 0.576 | 0.508 | 0.21 | 0.523 | 0.477 | 0.629 | 0.481 | 0.408 |
| NCI-H2228 | 0.334 | 0.319 | 0.343 | 0.398 | 0.237 | 0.629 | 0.338 | 0.649 | 0.655 | 0.331 | 0.444 | 0.403 | 0.464 | 0.335 | 0.298 | 0.749 | 0.609 | 0.588 | 0.539 | 0.123 |
| NCI-H460 | 0.0608 | 0.0555 | 0.0635 | 0.0564 | 0.0781 | 0.284 | 0.448 | 0.435 | 0.35 | 0.213 | 0.381 | – | 0.366 | 0.331 | 0.261 | 0.713 | 0.353 | 0.714 | 0.436 | 0.0364 |
| NCI-H2347 | 0.393 | 0.529 | 0.427 | 0.406 | 0.431 | 0.55 | 0.598 | 0.617 | 0.619 | 0.559 | 0.469 | 0.488 | 0.579 | 0.738 | 0.361 | 0.724 | 0.59 | 0.689 | 0.589 | 0.36 |
| EMC-BAC-2 | 0.391 | 0.423 | 0.45 | 0.411 | 0.376 | 0.498 | 0.465 | 0.487 | 0.477 | 0.417 | 0.642 | 0.492 | 0.579 | 0.514 | 0.502 | 0.472 | – | 0.634 | 0.318 | 0.168 |
| NCI-H1437 | 0.29 | 0.33 | 0.363 | 0.317 | 0.272 | 0.611 | 0.62 | 0.657 | 0.611 | 0.439 | 0.532 | 0.478 | 0.533 | 0.256 | 0.126 | 0.975 | 0.805 | 0.776 | 0.418 | 0.206 |
| NCI-H650 | 0.944 | 0.921 | 1.04 | 0.852 | 0.717 | 0.403 | 0.395 | 0.375 | 0.387 | 0.279 | 1.13 | – | 1.09 | 0.969 | 0.723 | 0.528 | – | 0.472 | 0.488 | 0.296 |
| NCI-H2009 | 0.958 | 1.03 | 1.1 | 0.885 | 0.767 | 0.776 | 0.748 | 0.779 | 0.544 | 0.268 | 1.08 | 0.772 | 1.06 | 0.843 | 0.169 | 0.798 | 0.701 | 0.822 | 0.736 | 0.375 |
| NCI-H1944 | 0.517 | 0.72 | 0.638 | 0.615 | 0.639 | 0.39 | 0.393 | 0.44 | 0.402 | 0.338 | 0.357 | – | 0.331 | 0.33 | 0.285 | 0.611 | – | 0.603 | 0.489 | 0.418 |
| NCI-H1734 | – | 0.405 | 0.419 | 0.354 | 0.366 | 0.672 | 0.616 | 0.629 | – | 0.508 | 0.52 | 0.359 | 0.463 | 0.397 | 0.316 | 0.965 | 0.67 | 0.966 | 0.545 | 0.329 |
| SK-LU-1 | 0.973 | 0.916 | 0.966 | 1.1 | 0.851 | 0.482 | 0.509 | – | 0.417 | 0.391 | 0.628 | 0.648 | 0.618 | 0.541 | 0.416 | 0.717 | 0.786 | 0.817 | 0.757 | 0.289 |
| NCI-H1915 | 0.434 | 0.523 | 0.484 | 0.5 | 0.457 | 0.291 | 0.263 | 0.252 | 0.222 | 0.185 | 0.943 | 0.558 | 1.03 | 0.933 | 0.66 | 0.536 | 0.36 | 0.599 | 0.542 | 0.387 |
| SW 1573 | 0.831 | 0.813 | 1.06 | 0.895 | 0.461 | 0.496 | 0.48 | 0.546 | – | 0.341 | 0.549 | 0.562 | 0.461 | 0.445 | 0.47 | 1.09 | 0.787 | 0.48 | 0.455 | 0.164 |
